Reference: article PMC3838380, “Investigating the Allosteric Regulation of YfiN from Pseudomonas aeruginosa: Clues from the Structure of the Catalytic Domain” (PLoS ONE, 2013)

Assays:
YfiNHAMP-GGDEF = biological target: T1, YfiNHAMP-GGDEF (Pseudomonas aeruginosa, UniProt Q9I4L5); experiment: isothermal titration calorimetry; type: binding
T1 construct: gene tpbB; cytosolic HAMP-GGDEF portion, residues 183-435, C-terminal His-tag (pET24b), synthetic gene, E. coli BL21(DE3), about 28 kDa, monomeric by AUC
Excerpt: isothermal titration calorimetry on YfiNHAMP-GGDEF

YfiNGGDEF = biological target: T2, YfiNGGDEF (Pseudomonas aeruginosa, UniProt Q9I4L5); experiment: isothermal titration calorimetry; type: binding
T2 construct: gene tpbB
Excerpt: isothermal titration calorimetry on YfiNGGDEF

T1 sequence (Q9I4L5 183-435): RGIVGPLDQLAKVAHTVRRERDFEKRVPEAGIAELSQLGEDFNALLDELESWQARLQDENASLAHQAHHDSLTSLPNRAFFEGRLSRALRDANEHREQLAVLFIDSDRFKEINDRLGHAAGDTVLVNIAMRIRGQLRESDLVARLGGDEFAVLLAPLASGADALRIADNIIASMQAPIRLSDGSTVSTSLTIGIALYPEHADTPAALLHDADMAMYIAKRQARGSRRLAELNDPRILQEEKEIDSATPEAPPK
T2 sequence (Q9I4L5 232-435): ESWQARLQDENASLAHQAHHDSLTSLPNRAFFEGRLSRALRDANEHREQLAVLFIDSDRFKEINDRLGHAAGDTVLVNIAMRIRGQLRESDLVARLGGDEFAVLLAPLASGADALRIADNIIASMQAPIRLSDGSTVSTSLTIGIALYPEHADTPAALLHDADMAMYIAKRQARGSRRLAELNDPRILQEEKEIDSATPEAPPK

Nc1nc2c(ncn2[C@@H]2O[C@H](COP(=O)(O)OP(=O)(O)OP(=O)(O)O)[C@@H](O)[C@H]2O)c(=O)[nH]1 [GTP]
Kd (YfiNHAMP-GGDEF): 180 nM
Kd (YfiNGGDEF): 67 nM
